Laboratory results from paper PMC11091888, “Evaluation of Fusobacterium nucleatum Enoyl-ACP Reductase (FabK) as a Narrow-Spectrum Drug Target” (ACS Infectious Diseases, 2024).
≈ marks a conversion by molar mass, not a printed value. Where “and” joins values, the source holds several entries; their conditions need not be identical. Identical values can stand only once. Entries after “also recorded” stand apart in the source; their conditions may differ. Like-named read-outs stand apart in the source and are kept apart here.

Tests used:
[1] = system: F. nucleatum 23726; assay: MIC against F. nucleatum 23726; format: cell-based, Fusobacterium nucleatum; details: Fusobacterium nucleatum, 23726, F. nucleatum 23726 wild-type; three biological replicates; read-out: MIC Fn 23726
Method: (§1) Compounds were twofold serially diluted (100–0.2 μg/mL) across a 96-well plate in 100 μL of media used for the specific organism (Table S4). For anaerobes, plates were incubated anaerobically at 37 °C for 1 h and then inoculated with approximately 10^5 to 10^6 CFU/well. Plates were incubated at 37 °C for up to 48 h, and MICs were read by visual inspection.

[2] = system: E. faecalis FA2–2ΔfabK; assay: MIC against E. faecalis FA2-2 fabI+ (ΔfabK, possesses only FabI); format: cell-based, Enterococcus faecalis
Method: as §1

[3] = system: F. nucleatum 23726 complementation strains; assay: MIC against F. nucleatum 23726 carrying FabK alanine-132 or threonine-132 under the wild-type fabK promoter; format: cell-based; details: Fusobacterium nucleatum
Method: The transformation of F. nucleatum 23726 was performed via electroporation as previously described,[41] except that Columbia broth was used. (i) Antisense vector: F. nucleatum gene silencing vector, pHFK2, was developed by inserting the ATc inducible paired-termini antisense sequences from the clostridial vector pMSPT into pCWU6, a F. nucleatum vector.[56] pCWU6 was amplified by PCR (CloneAmp polymerase) and recombined with the BamHI and KpnI fragments of pMSPT containing the Tet promoter and paired-termini sequences.[26] Antisense nucleotides targeting either 50 bp upstream and downstream of the fabK start codon (FabKAS1) or 25 bp upstream and 75 bp downstream (FabKAS2) were cloned into SphI and XhoI restriction sites of pHFK2. (ii) Complementation vectors: these were generated by PCR amplifying the fabK promoter and gene and introducing KpnI and HindIII restriction sites at 5′ and 3′ ends, respectively. Purified PCR amplicons were inserted into the KpnI and HindIII sites of pCWU6. (iii) Overexpression vectors: the corresponding gene, fabK or fabX, was amplified via PCR, introducing HindIII or SacI restriction sites to the 5′ end, respectively. BamHI restriction sites were introduced to the 3′ end of both. Purified PCR amplicons were inserted into the respective restriction sites of pHFK2. (iv) Allelic exchange vector: vector, pCWU8-FabK, was generated using a previously described protocol,[41],[56] whereby 1-kb regions upstream and downstream of fabK were cloned into the suicide vector pCWU8 using a Gibson Assembly Cloning Kit (New England Biolabs). The recombinant vector was transformed into strain F. nucleatum 23726ΔgalK, and successful integrants were collected that were resistant to thiamphenicol (5 μg/mL). […]
Compounds were twofold serially diluted (100–0.2 μg/mL) across a 96-well plate in 100 μL of media used for the specific organism (Table S4). […] Plates were incubated at 37 °C for up to 48 h, and MICs were read by visual inspection.

[4] = system: Actinomyces F0386; assay: MIC, digestive tract panel; format: cell-based; details: Type I FAS
Method: as §1

[5] = system: Bacteroides ovatus; assay: MIC, digestive tract panel; format: cell-based; details: ENR FabI/FabK
Method: as §1

[6] = system: Bifidobacterium breve; assay: MIC, digestive tract panel; format: cell-based; details: Type I FAS
Method: as §1

[7] = system: Clostridium sp. MSTE9; assay: MIC, digestive tract panel; format: cell-based; details: ENR FabK
Method: as §1

[8] = system: F. necrophorum 25286; assay: MIC, digestive tract panel; format: cell-based; details: Fusobacterium necrophorum, ENR FabK
Method: as §1

[9] = system: F. nucleatum 25586; assay: MIC, digestive tract panel; format: cell-based; details: Fusobacterium nucleatum, ENR FabK
Method: as §1

[10] = system: F. periodonticum 2_1_31; assay: MIC, digestive tract panel; format: cell-based; details: ENR FabK
Method: as §1

[11] = system: F. periodonticum 33693; assay: MIC, digestive tract panel; format: cell-based; details: ENR FabK
Method: as §1

[12] = system: F. vincentii 49256; assay: MIC, digestive tract panel; format: cell-based; details: ENR FabK
Method: as §1

[13] = system: P. gingivalis 33277; assay: MIC, digestive tract panel; format: cell-based; details: Porphyromonas gingivalis, ENR FabK
Method: as §1

[14] = system: P. gingivalis F0185; assay: MIC, digestive tract panel; format: cell-based; details: Porphyromonas gingivalis, ENR FabK
Method: as §1

[15] = system: P. gingivalis F0566; assay: MIC, digestive tract panel; format: cell-based; details: Porphyromonas gingivalis, ENR FabK
Method: as §1

[16] = system: P. gingivalis F0569; assay: MIC, digestive tract panel; format: cell-based; details: Porphyromonas gingivalis
Method: as §1

[17] = system: Prevotella denticola; assay: MIC, digestive tract panel; format: cell-based; details: ENR FabI
Method: as §1

[18] = system: Propionibacterium acidifaciens; assay: MIC, digestive tract panel; format: cell-based; details: ENR FabI
Method: as §1

[19] = system: Streptococcus downei; assay: MIC, digestive tract panel; format: cell-based; details: ENR FabK
Method: as §1

[20] = system: Streptococcus mitis; assay: MIC, digestive tract panel; format: cell-based; details: ENR FabK
Method: as §1

[21] = system: Streptococcus pyogenes; assay: MIC, digestive tract panel; format: cell-based; details: ENR FabK
Method: as §1

[22] = system: Streptococcus salivarius; assay: MIC, digestive tract panel; format: cell-based; details: ENR FabK
Method: as §1

[23] = system: Streptococcus sanguinis; assay: MIC, digestive tract panel; format: cell-based; details: ENR FabK
Method: as §1

[24] = system: Streptococcus sp. CMW7705B; assay: MIC, digestive tract panel; format: cell-based; details: ENR FabK
Method: as §1

[25] = system: Streptococcus sp. SPAR10; assay: MIC, digestive tract panel; format: cell-based; details: ENR FabK
Method: as §1

[26] = system: F. nucleatum 23726; assay: Growth in FAS-II inhibitor with or without exogenous fatty acids; format: cell-based, Fusobacterium nucleatum; details: fatty acid mixture of Table S2
Method: To plates containing twofold serial dilutions of compounds, exponential phase cultures were added to a final OD600nm of 0.1. Plates containing F. nucleatum in Columbia broth were incubated at 37 °C inside of a Tecan Infinite 200 Pro, which was inside an anaerobic chamber; growth kinetics for Streptococcus spp. in brain heart infusion broth were done aerobically in the same Tecan instrument.

Q: How did the MIC [1] turn out when `CS(=O)(=O)c1ccc2nc(NC(=O)NCc3nc(-c4ccc(Br)cc4)c[nH]3)sc2c1` [Compound 681, 1-((4-(4-bromophenyl)-1H-imidazole-2-yl)methyl)-3-(6-(methylsulfonyl)benzo[d]thiazol-2-yl)urea] was run?
A: 0.4 µg/mL (≈ 0.79 µM)

Q: What about the “MIC Ef fabI+” value ([2]; E. faecalis FA2-2 ΔfabK, possesses only FabI) of the same molecule?
A: 100 µg/mL and >100 µg/mL

Q: And the MIC ([2]; Enterococcus faecalis, read-out: MIC Ef fabI+, E. faecalis FA2-2 ΔfabK, possesses only FabI)?
A: > 100 µg/mL

Q: And the MIC ([3]; read-out: MIC, empty vector control)?
A: 0.6 µg/mL

Q: What about the MIC ([3]; read-out: MIC, threonine-132 FabK mutant) of the same molecule?
A: 2.5 to 5 µg/mL

Q: And the MIC ([3]; read-out: MIC, wild-type FabK (alanine-132))?
A: 1.3 µg/mL

Q: And the MIC [4]?
A: > 100 µg/mL

Q: What about the MIC [5] of the same molecule?
A: >100 µg/mL

Q: What about the MIC ([5]; read-out: MIC) of the same molecule?
A: > 100 µg/mL

Q: What about the MIC [6] of the same molecule?
A: >100 µg/mL

Q: What about the MIC ([6]; read-out: MIC) of the same molecule?
A: > 100 µg/mL

Q: And the MIC [7]?
A: > 100 µg/mL

Q: And the MIC [8]?
A: 6.3 to 12.5 µg/mL (≈ 12.4 to 24.7 µM)

Q: And the MIC [9]?
A: 0.8 µg/mL (≈ 1.58 µM)

Q: What about the MIC [10] of the same molecule?
A: 0.8 µg/mL (≈ 1.58 µM)

Q: What about the MIC [11] of the same molecule?
A: 0.8 µg/mL (≈ 1.58 µM)

Q: And the MIC [12]?
A: 1.6 µg/mL (≈ 3.16 µM)

Q: What about the MIC [13] of the same molecule?
A: > 100 µg/mL

Q: What about the MIC [14] of the same molecule?
A: 6.3 µg/mL (≈ 12.4 µM)

Q: What about the MIC [15] of the same molecule?
A: 3.1 µg/mL (≈ 6.12 µM)

Q: What about the MIC [16] of the same molecule?
A: > 100 µg/mL

Q: And the MIC [17]?
A: > 100 µg/mL

Q: What about the MIC [18] of the same molecule?
A: 6.3 µg/mL (≈ 12.4 µM)

Q: What about the MIC [19] of the same molecule?
A: < 1.6 µg/mL

Q: And the MIC [20]?
A: < 1.6 µg/mL

Q: What about the MIC [21] of the same molecule?
A: < 1.6 µg/mL

Q: What about the MIC [22] of the same molecule?
A: < 1.6 µg/mL

Q: And the MIC [23]?
A: < 1.6 µg/mL

Q: What about the MIC [24] of the same molecule?
A: < 1.6 µg/mL

Q: What about the MIC [25] of the same molecule?
A: < 1.6 µg/mL

Q: What about the “Effect of exogenous fatty acids on growth inhibition of F. nucleatum” value [26] of the same molecule?
A: did not attenuate; also recorded: did not rescue
